According to US7585895B2, “Therapeutic substituted cyclopentanes” (Allergan, Inc., priority 2005, dated 2009):

How the values were obtained:
[1] = Dog ocular hyperemia; type: in vivo; conditions: Conc. 0.1 g/100 mL
[2] = Monkey intraocular pressure (Max. ΔIOP); type: in vivo; conditions: Primates, Conc. 0.1 g/100 mL
[3] = Dog intraocular pressure (Max. ΔIOP); type: in vivo; conditions: Canis lupus familiaris, Conc. 0.1 g/100 mL
[4] = target: T1, hEP2/Gqs5 (Homo sapiens, UniProt P43116); assay: FLIPR calcium signal, EP2; type: cell-based; conditions: HEK-293(EBNA), value outside parentheses, read-out: Ca2+ Signal-EC50 (nM) EP2
T1 construct: expressed in transfected cells
T1 sequence (P43116 whole entry): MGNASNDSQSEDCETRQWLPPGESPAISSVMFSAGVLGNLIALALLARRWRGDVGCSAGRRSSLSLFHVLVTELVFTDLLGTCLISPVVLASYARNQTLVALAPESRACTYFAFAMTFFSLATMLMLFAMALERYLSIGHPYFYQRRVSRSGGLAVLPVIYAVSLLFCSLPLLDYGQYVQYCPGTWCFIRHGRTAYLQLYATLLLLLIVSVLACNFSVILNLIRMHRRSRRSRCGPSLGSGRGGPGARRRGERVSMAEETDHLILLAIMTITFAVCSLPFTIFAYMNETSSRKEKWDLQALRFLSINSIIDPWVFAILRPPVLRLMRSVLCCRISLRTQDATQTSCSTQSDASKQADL
Description: (§1) HEK-293(EBNA) cells, stably expressing one type or subtype of recombinant human prostaglandin receptors (prostaglandin receptors expressed: hDP/Gqs5; hEP1; hEP2/Gqs5; hEP3A/Gqi5; hEP4/Gqs5; hFP; hIP; hTP), were cultured in 100 mm culture dishes in high-glucose DMEM medium containing 10% fetal bovine serum, 2 mM 1-glutamine, 250 μg/ml geneticin (G418) and 200 μg/ml hygromycin B as selection markers, and 100 units/ml penicillin G, 100 μg/ml streptomycin and 0.25 μg/ml amphotericin B.
(§2) Cells were seeded at a density of 5×10^4 cells per well in Biocoat® Poly-D-lysine-coated black-wall, clear-bottom 96-well plates (Becton-Dickinson) and allowed to attach overnight in an incubator at 37° C. Cells were then washed two times with HBSS-HEPES buffer (Hanks Balanced Salt Solution without bicarbonate and phenol red, 20 mM HEPES, pH 7.4) using a Denley Cellwash plate washer (Labsystems). After 45 minutes of dye-loading in the dark, using the calcium-sensitive dye Fluo-4 AM at a final concentration of 2 μM, plates were washed four times with HBSS-HEPES buffer to remove excess dye leaving 100 μl in each well. Plates were re-equilibrated to 37° C. for a few minutes.
(§3) Cells were excited with an Argon laser at 488 nm, and emission was measured through a 510-570 nm bandwidth emission filter (FLIPR™, Molecular Devices, Sunnyvale, Calif.). Drug solution was added in a 50 μl volume to each well to give the desired final concentration. The peak increase in fluorescence intensity was recorded for each well. On each plate, four wells each served as negative (HBSS-HEPES buffer) and positive controls (standard agonists: BW245C (hDP); PGE2 (HEP1; hEP2/Gqs5; hEP3A/Gqi5; hEP4/Gqs5); PGF2α (hFP); carbacyclin (hIP); U-46619 (hTP), depending on receptor). The peak fluorescence change in each drug-containing well was then expressed relative to the controls.
(§4) Compounds were tested in a high-throughput (HTS) or concentration-response (CoRe) format. In the HTS format, forty-four compounds per plate were examined in duplicates at a concentration of 10^−5 M. To generate concentration-response curves, four compounds per plate were tested in duplicates in a concentration range between 10^−5 and 10^−11 M. The duplicate values were averaged. In either, HTS or CoRe format each compound was tested on at least 3 separate plates using cells from different passages to give an n≧3.

[5] = target: T2, hEP3A/Gqi5 (Homo sapiens, UniProt P43115); assay: FLIPR calcium signal, EP3; type: cell-based; conditions: HEK-293(EBNA)
T2 construct: expressed in transfected cells
T2 sequence (P43115 1-390): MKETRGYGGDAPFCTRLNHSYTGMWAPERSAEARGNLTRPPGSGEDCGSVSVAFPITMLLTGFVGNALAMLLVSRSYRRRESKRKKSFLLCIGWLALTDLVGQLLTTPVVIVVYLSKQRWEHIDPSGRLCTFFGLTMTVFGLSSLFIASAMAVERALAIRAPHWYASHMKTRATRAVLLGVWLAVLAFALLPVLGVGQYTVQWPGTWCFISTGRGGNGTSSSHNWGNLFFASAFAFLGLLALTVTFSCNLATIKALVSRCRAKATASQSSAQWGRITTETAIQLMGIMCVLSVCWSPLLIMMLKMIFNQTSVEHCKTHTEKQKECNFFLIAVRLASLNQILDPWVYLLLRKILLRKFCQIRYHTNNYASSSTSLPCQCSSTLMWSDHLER
Description: as §1, §2, §3, §4

[6] = target: T3, hFP (Homo sapiens, UniProt P43088); assay: FLIPR calcium signal, FP; type: cell-based; conditions: HEK-293(EBNA)
T3 construct: expressed in transfected cells
T3 sequence (P43088 whole entry): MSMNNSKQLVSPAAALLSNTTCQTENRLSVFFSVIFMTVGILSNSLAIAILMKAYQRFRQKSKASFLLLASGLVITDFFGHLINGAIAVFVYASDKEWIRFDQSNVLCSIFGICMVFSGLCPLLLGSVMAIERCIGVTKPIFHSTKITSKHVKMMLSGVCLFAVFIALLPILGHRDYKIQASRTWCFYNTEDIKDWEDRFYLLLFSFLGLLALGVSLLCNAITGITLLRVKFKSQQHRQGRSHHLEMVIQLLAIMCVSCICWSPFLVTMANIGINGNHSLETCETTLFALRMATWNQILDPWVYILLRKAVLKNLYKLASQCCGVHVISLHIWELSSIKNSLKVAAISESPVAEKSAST
Description: as §1, §2, §3, §4

[7] = target: T4, hTP (Homo sapiens, UniProt P21731); assay: FLIPR calcium signal, TP; type: cell-based; conditions: HEK-293(EBNA)
T4 construct: expressed in transfected cells
T4 sequence (P21731 1-343): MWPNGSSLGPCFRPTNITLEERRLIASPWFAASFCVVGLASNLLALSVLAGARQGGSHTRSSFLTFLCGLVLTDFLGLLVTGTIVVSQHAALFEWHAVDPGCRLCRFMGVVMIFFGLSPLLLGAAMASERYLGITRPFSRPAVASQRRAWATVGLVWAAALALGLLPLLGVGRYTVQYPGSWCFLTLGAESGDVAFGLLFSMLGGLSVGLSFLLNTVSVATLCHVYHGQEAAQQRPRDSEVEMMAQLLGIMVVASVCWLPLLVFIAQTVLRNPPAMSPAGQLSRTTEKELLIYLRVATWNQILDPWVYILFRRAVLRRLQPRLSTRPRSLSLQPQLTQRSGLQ
Description: as §1, §2, §3, §4

[8] = target: T5, hDP/Gqs5 (Homo sapiens, UniProt Q13258); assay: FLIPR calcium signal, DP; type: cell-based; conditions: HEK-293(EBNA)
T5 construct: expressed in transfected cells
T5 sequence (Q13258 1-359): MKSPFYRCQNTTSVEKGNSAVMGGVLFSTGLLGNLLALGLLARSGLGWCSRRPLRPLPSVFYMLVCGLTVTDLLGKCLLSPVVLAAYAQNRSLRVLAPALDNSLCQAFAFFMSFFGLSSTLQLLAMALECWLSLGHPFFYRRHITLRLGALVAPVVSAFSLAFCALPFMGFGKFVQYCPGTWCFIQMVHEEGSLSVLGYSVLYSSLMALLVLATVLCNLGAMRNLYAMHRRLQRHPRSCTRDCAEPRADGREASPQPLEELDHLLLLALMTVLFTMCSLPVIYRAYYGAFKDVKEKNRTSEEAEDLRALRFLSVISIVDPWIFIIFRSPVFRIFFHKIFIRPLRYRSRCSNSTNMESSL
Description: as §1, §2, §3, §4

[9] = target: T6, hEP4/Gqs5 (Homo sapiens, UniProt P35408); assay: FLIPR calcium signal, EP4; type: cell-based; conditions: HEK-293(EBNA)
T6 construct: expressed in transfected cells
T6 sequence (P35408 whole entry): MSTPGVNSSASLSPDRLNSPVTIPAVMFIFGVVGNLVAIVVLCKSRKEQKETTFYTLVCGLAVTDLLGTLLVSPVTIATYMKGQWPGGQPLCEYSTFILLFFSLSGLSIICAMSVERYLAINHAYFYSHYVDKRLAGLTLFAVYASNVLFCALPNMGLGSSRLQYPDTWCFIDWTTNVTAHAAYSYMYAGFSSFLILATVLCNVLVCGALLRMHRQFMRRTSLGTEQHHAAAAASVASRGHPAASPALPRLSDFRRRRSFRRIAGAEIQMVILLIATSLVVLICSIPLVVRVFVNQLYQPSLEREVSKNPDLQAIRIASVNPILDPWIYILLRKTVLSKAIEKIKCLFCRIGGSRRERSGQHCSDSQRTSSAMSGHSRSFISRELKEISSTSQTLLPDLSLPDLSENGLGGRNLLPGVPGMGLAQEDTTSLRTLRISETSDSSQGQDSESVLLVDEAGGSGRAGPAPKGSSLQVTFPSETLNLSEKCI
Description: as §1, §2, §3, §4

[10] = target: T7, hIP (Homo sapiens, UniProt P43119); assay: FLIPR calcium signal, IP; type: cell-based; conditions: HEK-293(EBNA)
T7 construct: expressed in transfected cells
T7 sequence (P43119 whole entry): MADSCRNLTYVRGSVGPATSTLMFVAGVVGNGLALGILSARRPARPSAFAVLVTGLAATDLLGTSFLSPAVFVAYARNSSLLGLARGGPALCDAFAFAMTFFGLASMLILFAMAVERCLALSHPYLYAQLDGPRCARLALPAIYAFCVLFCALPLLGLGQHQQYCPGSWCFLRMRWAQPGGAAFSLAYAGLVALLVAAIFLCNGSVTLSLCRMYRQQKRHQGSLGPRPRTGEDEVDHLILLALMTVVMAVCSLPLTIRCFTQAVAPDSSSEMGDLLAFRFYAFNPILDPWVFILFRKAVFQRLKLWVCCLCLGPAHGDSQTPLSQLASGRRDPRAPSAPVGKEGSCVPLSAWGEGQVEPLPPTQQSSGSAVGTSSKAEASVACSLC
Description: as §1, §2, §3, §4

[11] = target: T8, hEP1 (Homo sapiens, UniProt P34995); assay: FLIPR calcium signal, EP1; type: cell-based; conditions: HEK-293(EBNA)
T8 construct: expressed in transfected cells
T8 sequence (P34995 1-402): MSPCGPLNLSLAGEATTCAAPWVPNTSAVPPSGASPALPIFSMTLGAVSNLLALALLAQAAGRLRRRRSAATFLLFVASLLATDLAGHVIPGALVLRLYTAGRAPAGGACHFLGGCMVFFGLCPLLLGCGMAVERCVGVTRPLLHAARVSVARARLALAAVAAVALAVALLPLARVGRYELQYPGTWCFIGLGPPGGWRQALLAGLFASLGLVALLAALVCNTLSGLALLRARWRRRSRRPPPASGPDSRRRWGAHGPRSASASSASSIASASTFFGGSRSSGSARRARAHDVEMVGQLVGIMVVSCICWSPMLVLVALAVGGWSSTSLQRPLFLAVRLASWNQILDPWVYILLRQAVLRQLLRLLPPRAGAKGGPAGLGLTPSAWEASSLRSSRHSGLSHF
Description: as §1, §2, §3, §4

[12] = target: T9, EP2 (Homo sapiens, UniProt P43116); assay: Competition binding, [3H]PGE2, EP2 (Ki); design: expressed in transfected cells; membranes or whole cells; conditions: HEK 293 cells stably expressing human EP2, [3H]PGE2
T9 sequence (P43116 whole entry): as the sequence (P43116 whole entry) above
Description: Competition binding experiments were performed in a medium containing Hank's balanced salt solution, Hepes 20 mM, pH 7.3, membranes (˜60 μg protein) or 2×10^5 cells from HEK 293 cells stably expressing human EP2 receptors, [^3H]PGE2 (10 nM) and various concentrations of test compounds in a total volume of 300 μl. Reaction mixtures were incubated at 23° C. for 60 min, and were filtered over Whatman GF/B filters under vacuum. Filters were washed three times with 5 ml ice-cold buffer containing 50 mM Tris/HCl (pH 7.3). Non-specific binding was estimated in the presence of excess unlabeled PGE2 (10 μM). Binding data fitted to the binding model for a single class of binding sites, using nonlinear regression analysis. IC50 values thus obtained were converted to Ki using the equation of Ki=(IC50/(1+[L]/KD) where [L] represents PGE2 concentration (10 nM) and KD the dissociation constant for [^3H]PGE2 at human EP2 receptors (40 nM).
(§5) HEK-293 cells stably expressing the human or feline FP receptor, or EP1, EP2, or EP4 receptors were washed with TME buffer, scraped from the bottom of the flasks, and homogenized for 30 sec using a Brinkman PT 10/35 polytron. TME buffer was added to achieve a final 40 ml volume in the centrifuge tubes (the composition of TME is 100 mM TRIS base, 20 mM MgCl2, […]; 10N HCl is added to achieve a pH of 7.4).
(§6) The cell homogenate was centrifuged at 19000 r.p.m. for 20 min at 4° C using a Beckman Ti-60 rotor. The resultant pellet was resuspended in TME buffer to give a final 1 mg/ml protein concentration, as determined by Biorad assay. Radioligand binding competition assays vs. [^3H-]17-phenyl PGF2α. (5 nM) were performed in a 100 μl volume for 60 min. Binding reactions were started by adding plasma membrane fraction. The reaction was terminated by the addition of 4 ml ice-cold TRIS-HCl buffer and rapid filtration through glass fiber GF/B filters using a Brandel cell harvester. The filters were washed 3 times with ice-cold buffer and oven dried for one hour.
(§7) [^3H-] PGE2 (specific activity 180 Ci mmol) was used as the radioligand for EP receptors. [^3H] 17-phenyl PGF2α, was employed for FP receptor binding studies. Binding studies employing EP1, EP2, EP4 and FP receptors were performed in duplicate in at least three separate experiments. A 200 μl assay volume was used. Incubations were for 60 min at 25° C. and were terminated by the addition of 4 ml of ice-cold 50 mM TRIS-HCl, followed by rapid filtration through Whatman GF/B filters and three additional 4 ml washes in a cell harvester (Brandel). Competition studies were performed using a final concentration of 5 nM [^3H]-PGE2, or 5 nM [^3H] 17-phenyl PGF2αand non-specific binding determined with 10^−5M of unlabeled PGE2, or 17-phenyl PGF2α, according to receptor subtype studied.

[13] = target: T9, EP2; assay: cAMP assay, HEK-EBNA cells expressing EP2; type: cell-based; design: expressed in transfected cells; host or cells: HEK-EBNA; conditions: value in parentheses in EP2 column, read-out: EP2 EC50 (nM), measurement of cAMP (data in parentheses)
Description: A 384-well drug plate was prepared to contain 6 test compounds, PGE2 and cAMP in 16 serial dilutions in triplicate, using a Biomek station. HEK-EBNA cells expressing a target PG receptor subtype (EP2 or EP4) were suspended in a stimulation buffer (HBSS, 0.1% BSA, 0.5 mM IBMX and 5 mM HEPES, pH 7.4) in a density of 10^4 cells/5 μl. The reaction was initiated by mixing 5 μL drug dilutions with 5 μl of HEK-EBNA cells in a well, carried out for 30 min at room temperature, and followed by the addition of 5 μl anti-cAMP acceptor beads in the control buffer with Tween-20 (25 mM NaCl, 0.03% Tween-20, 5 mM HEPES, pH7.4). After 30 min in the dark at room temperature, the mixtures were incubated with 15 μl biotinylated-cAMP/strepavidin donor beads in Lysis/Detection buffer (0.1% BSA, 0.3% Tween-20 and 5 mM HEPES, pH7.4) for 45 min at the room temperature. Fluorescence changes were read using a Fusion-alpha HT microplate reader.

[14] = target: T10, EP4 receptors (Homo sapiens, UniProt P35408); assay: Radioligand binding, [3H]PGE2, EP4 (Ki); conditions: HEK-293 cells stably expressing EP4, [3H]PGE2
T10 construct: expressed in transfected cells; membrane pellet
T10 sequence (P35408 whole entry): as the sequence (P35408 whole entry) above
Description: as §5, §6, §7

DOG Max. hpyeremia [1] | EC50 [4] [nM] | EC50 ([5]; read-out: Ca2+ Signal-EC50 (nM) EP3) [nM] | Ca2+ Signal-EC50 (nM) FP [6] | Ca2+ Signal-EC50 (nM) TP [7] | Ca2+ Signal-EC50 (nM) DP [8] | Ca2+ Signal-EC50 (nM) EP4 [9] | Ca2+ Signal-EC50 (nM) IP [10] | EC50 ([11]; read-out: Ca2+ Signal-EC50 (nM) EP1) [nM] | Ca2+ Signal-EC50 (nM) EP3 [5] | Ca2+ Signal-EC50 (nM) EP1 [11] | Ki [12] [nM] | EC50 [13] [nM] | EC50 ([9]; read-out: Ca2+ Signal-EC50 (nM) EP4) [nM] | Ki [14] [nM] | Structure (SMILES) | change in vivo at 1000 µg/mL [2] [%] | change in vivo at 1000 µg/mL [3] [%]
0.5 |  |  |  |  |  |  |  |  |  |  |  |  |  |  | CCCCCCc1ccc([C@@H]2[C@@H](C/C=C\CCCC(=O)OC(C)C)[C@H](Cl)C[C@H]2O)cc1 [compound 7] | 21 | 20
 | 2450 | 4150 | not active | not active | not active | not active | not active | 917 |  |  |  |  |  |  | CCCCCC(O)c1ccc([C@@H]2[C@@H](CCCc3cccc(C(=O)O)c3)[C@H](Cl)C[C@H]2O)cc1 (stereo partly drawn) [Entry 1, 3-(3-{(1R,2S,3R,5R)-5-Chloro-3-hydroxy-2-[4-(1-hydroxy-hexyl)-phenyl]-cyclopentyl}-propyl)-benzoic acid] |  | 
 | 3960 |  | not active | not active | not active | not active | not active |  | not active | not active |  |  |  |  | CCCCCC(O)c1ccc([C@@H]2[C@@H](C/C=C\CCCC(=O)OC)[C@H](Cl)C[C@H]2O)cc1 (mixture of isomers) [Entry 10, (Z)-7-{(1R,2S,3R,5R)-5-Chloro-3-hydroxy-2-[4-(1-hydroxy-hexyl)-phenyl]-cyclopentyl}-hept-5-enoic acid methyl ester] |  | 
 | > 10000 |  |  |  |  |  |  |  |  |  | 1050 | 815 | > 10000 | 6290 | CC(C)(C)CCCC(O)c1ccc([C@@H]2[C@@H](C/C=C\CCCC(=O)O)[C@H](Cl)C[C@H]2O)cc1 (stereo partly drawn) [Entry 19, (Z)-7-{(1R,2S,3R,5R)-5-Chloro-3-hydroxy-2-[4-(1-hydroxy-5,5-dimethyl-hexyl)-phenyl]-cyclopentyl}-hept-5-enoic acid] |  | 
